Reference: US20260272936A1, “TREATMENT OF CANCER WITH A PARG INHIBITOR” (858 Therapeutics, Inc., priority 2023, published 2026)

Tested on: Parental SNU601 cells
Assay: 6-day proliferation, nuclei count, parental line
Type: cell-based
Conditions: Homo sapiens, SNU-601, 144 h, read-out: IC50 inhibition of proliferation
Protocol: The SNU601 gastric carcinoma cell line (Creative Bioarray, Cat #CSC-C9686L) was cultured in RPMI media containing glutamax, 10% fetal bovine serum, and 1% penicillin/streptomycin at 37° C., 5% CO2. To generate a PARP inhibitor resistant cell line, an IC20 concentration of niraparib was added to the culture media.
Compound 1 and the PARP inhibitor niraparib were tested in cellular proliferation assays using the parental SNU601 cell line and the SNU601 cell line with acquired PARPi resistance. For the proliferation assays, cells were plated in 96-well plates (Corning costar 3603) at 2500-5000 cells/well in normal growth media. The next day, compound dissolved in vehicle (0.5% DMSO in media) was added to generate a 7- to 10-point concentration curve with half-log dilutions and starting concentrations of 10 or 31.6 μM. After 6 days of compound or vehicle treatment, the cells were fixed with a solution of 8% paraformaldehyde, 0.2% Triton X-100 for 20 minutes. After washing the cells with PBS, the nuclei were stained by the addition of DAPI (4′,6-diamidino-2-phenylindole) and incubation for 20 minutes. The number of nuclei in each well were counted by imaging the plates on an Image Xpress Pico automated cell imaging system (Molecular Devices). The percent proliferation after treatment was determined by normalizing the number of nuclei in treated wells to the vehicle-treated wells. […]

Compound: [2H]C([2H])(c1cnn(C)c1)N1C(=O)c2cc(S(=O)(=O)NC3(C)CC3)ccc2N2C1=NC[C@H]2C [Compound 1, (R)-1-methyl-4-((1-methyl-1H-pyrazol-4-yl)methyl-d2)-N-(1-methylcyclopropyl)-5-oxo-1,2,4,5-tetrahydroimidazo[1,2-a]quinazoline-7-sulfonamide]
- IC50: 210 nM
